Data from PMC12073248, “Tyrosinase Inhibitors Among Flora of Lubelskie Region—Application of Bio-Chromatographic Approach and Zebrafish Model in Bioactivity Screening of Plant Material” (Molecules, 2025).

Experiments:
mushroom tyrosinase [1] = biological target: T1, mushroom tyrosinase (Agaricus bisporus, UniProt C7FF04); assay: Bio-chromatographic assay: HPLC-ESI-QTOF-MS/MS of extract with and without tyrosinase; assay type: binding; conditions: chemometric comparison, p < 0.001
mushroom tyrosinase [2] = biological target: T1, mushroom tyrosinase; assay: Spectrophotometric tyrosinase inhibition assay with L-DOPA as substrate; assay type: biochemical; conditions: standards 0.015 to 5.0 mg/mL
Experimental: The inhibitory properties of the extracts against tyrosinase were evaluated using in an in vitro assay with the mushroom tyrosinase enzyme and L-DOPA as a substrate (Sigma Aldrich, St. Louis, MO, USA). The assay was performed based on the method by Uchida and colleagues [43]. Briefly, 100 µL of 100 mM phosphate buffer (pH 6.8) and 20 µL of the diluted extracts of studied plants (1 mg/mL solution in DMSO) were pipetted into a 96 well microwell. Afterwards, 20 μL of the mushroom tyrosinase (500 U/mL) dissolved in phosphate buffer (pH 6.8) was added to each microwell and the mixture was pre-incubated for 10 min at room temperature. After incubation, 80 µL of 8 mM L-DOPA was added and the reaction was initiated and sustained at 25 °C. After 20 min, the absorbance was measured at 450 nm using a microplate reader Promega GloMax Explorer GM 3510 (Madison, MO, USA). The control sample (with 100% tyrosinase activity) contained the appropriate volume of the solvent (100 µL buffer plus 20 µL DMSO) instead of the extract. In both assays, the dopachrome formation was measured spectrophotometrically at λ = 450 nm, using a Promega microplate reader. The obtained values were corrected by the absorbance value of the background that was measured for the extracts without the mushroom tyrosinase and L-DOPA. Each sample was analyzed in three independent repetitions. […]

mushroom tyrosinase [3] = biological target: T1, mushroom tyrosinase; assay: Bio-chromatographic assay: HPLC-ESI-QTOF-MS/MS of extract with and without tyrosinase; assay type: binding; conditions: for Peak in subtracted chromatogram (extract with enzyme minus extract): negative ion mode, negative peak = decrease in intensity on reaction with the enzyme; for Inhibitory properties in the bio-chromatographic assay: aglycons in M. recutita extract, minute content, matrix effect; for Peak height after reaction with tyrosinase: mass chromatograms with and without enzyme
Experimental: For the identification of single components responsible for interactions with tyrosinase enzymes, a bio-chromatographic assay was performed. For this purpose, two 0.5 mL portions of 1 mg/mL 50% EtOH extract of chamomile dissolved in water each were transferred to an Eppendorf vial of 2 mL. The sample coded as sample A was mixed with 0.5 mL of carbonate buffer prepared by dissolving 120 mg Na2CO3 and 12.5 mg NaHCO3 in 1000 mL of water and later diluted 40 times, whereas sample B was mixed with 0.5 mL of tyrosinase enzyme (500 U/mL) in the same carbonate buffer and diluted 40 times as sample A was.
Both samples A and B were filtered through nylon syringe filters (0.1 µm pore size) into autosampler vials and analyzed using an HPLC-ESI-QTOF-MS/MS instrument. The test was performed in triplicate. During the analysis of recorded data, the obtained chromatograms were subtracted from each other in the Mass Hunter Workstation Program to highlight the changes visible under the influence of the enzyme, and some of the potentially active components were tentatively identified thanks to high-resolution mass measurement, recorded MS/MS fragmentation patterns, and comparison with open mass databases (Metlin, HMDB, Mass Bank). Both injections—with and without the enzyme—were also compared using the Mass Profiler Professional Program (Agilent Technologies, Santa Clara, CA, USA). For this purpose, molecular feature extraction was carried out using the Profinder program v. 10.0.02 (Agilent Technologies, Santa Clara, CA, USA) to obtain a list of m/z values, retention times, and peak areas from the recorded injections, which were exported in profinder archive and detailed CSV formats for subsequent chemometric comparison. The data were filtered based on criteria including a mass tolerance of 10 ppm, retention time variation of 0.3 min, and a minimum peak area of 1% of the highest signal. The chemometric analysis performed directly within the program yielded 802 entities in positive ion mode and 715 in negative ion mode (p < 0.05), in a one-way ANOVA test with asymptotic p-value computation and Benjamini–Hochberg multiple testing correction.

T1 sequence (C7FF04 1-392): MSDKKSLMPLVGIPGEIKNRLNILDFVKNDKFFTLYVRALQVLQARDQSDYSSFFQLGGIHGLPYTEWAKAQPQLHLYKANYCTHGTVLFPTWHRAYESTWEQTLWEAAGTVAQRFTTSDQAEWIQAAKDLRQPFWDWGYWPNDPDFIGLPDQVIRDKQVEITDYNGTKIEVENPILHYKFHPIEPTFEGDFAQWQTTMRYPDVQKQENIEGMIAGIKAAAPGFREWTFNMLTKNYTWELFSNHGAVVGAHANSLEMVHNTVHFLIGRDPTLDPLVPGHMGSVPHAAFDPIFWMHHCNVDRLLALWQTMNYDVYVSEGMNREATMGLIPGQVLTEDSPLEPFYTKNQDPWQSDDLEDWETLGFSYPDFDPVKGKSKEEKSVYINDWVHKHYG

Row | Compound | Presence among m/z features differentiating extract before and after tyrosinase treatment (mushroom tyrosinase [1]) | Peak in subtracted chromatogram (extract with enzyme minus extract) (mushroom tyrosinase [3]) | also measured
1 | O=C(O)CC(OC(=O)/C=C/c1ccc(O)c(O)c1)C(=O)O (centres unmarked) [caffeoylmalic acid, Caffeoylmalic acid] | present on the list of the differentiating molecular features | – | –
2 | COc1cc(/C=C/C(=O)O)ccc1O [ferulic acid, Ferulic acid] | – | – | IC50 (mushroom tyrosinase [2]): 484 nM
3 | O=C(O)CC(O)C(=O)O (centres unmarked) [malic acid, Malic acid] | – | Large negative peaks | –
4 | O=c1cc(-c2ccc(O)c(O)c2)oc2cc(O)cc(O)c12 [luteolin, Luteolin] | – | – | Inhibitory properties in the bio-chromatographic assay (mushroom tyrosinase [3]): did not show inhibitory properties
5 | Syringetin glucoside | visible in the list of differentiating signals | – | –
6 | O=C(O)[C@]1(O)C[C@@H](O)[C@@H](O)[C@H](O)C1 [quinic acid, Quinic acid] | present on the list of the differentiating molecular features | – | –
7 | O=C(O)CC(=O)OC[C@H]1O[C@@H](Oc2c(-c3ccc(O)cc3)oc3cc(O)cc(O)c3c2=O)[C@H](O)[C@@H](O)[C@@H]1O [kaempferol malonylglucoside, Kaempferol 3-(6″-malonylglucoside)] | – | – | Peak height after reaction with tyrosinase (mushroom tyrosinase [3]): marked decrease in the peak height
8 | O=c1cc(-c2ccc(O)cc2)oc2cc(O)cc(O)c12 [apigenin, Apigenin] | – | – | Inhibitory properties in the bio-chromatographic assay (mushroom tyrosinase [3]): did not show inhibitory properties
9 | O=c1c(O[C@@H]2OC[C@H](O)[C@H](O)[C@H]2O)c(-c2ccc(O)cc2)oc2cc(O)cc(O)c12 [kaempferol arabinoside, Kaempferol-3-O-alpha-L-arabinoside] | – | – | Peak height after reaction with tyrosinase (mushroom tyrosinase [3]): marked decrease in the peak height
10 | Protocatechuoylglucose [protocatechuoyl-glucose] | – | visible negative peak | –
11 | O=C(O)[C@H](O)[C@@H](O)[C@H](O)[C@H](O)CO [gluconic acid, Gluconic acid] | – | Large negative peaks | –
12 | Feruloyl hexose | – | Large negative peaks | –
13 | COc1cc(/C=C/C(=O)O)cc(OC)c1O [sinapic acid, Sinapic acid] | present on the list of the differentiating molecular features | – | –
14 | Isopropylmalic acid | present on the list of the differentiating molecular features | – | –
15 | O=C(/C=C/c1ccc(O)cc1)O[C@@H](C(=O)O)[C@@H](O)C(=O)O [coumaroyl-tartaric acid, p-Coumaroyltartaric acid] | present on the list of the differentiating molecular features | – | –
16 | O=C(O)CC(O)(CC(=O)O)C(=O)O [citric acid, Citric acid] | – | Large negative peaks | –
17 | Feruloyl-glucose isomers | – | leading negative peak | –
